“And” between values parts separate entries of the source, which are not always exact repeats. Identical values can stand only once. Like-named read-outs stand apart in the source and are kept apart here. Each block holds one molecule with its values, some of them ahead of it. Square brackets hold non-standard residues; d marks the D form. Peptide text beside a SMILES is read from it. * marks the point of attachment. NH(CH2)3O(2-CNpyrimidin5yl) = N#Cc1ncc(OCCCN*)cn1; 4Amb = NCc1ccc(C(=O)O)cc1; Pra = C#CC[CH](N)C(=O)O; SEt = CCS*
Key:
[1] = Condensation kinetics of aminothiols with CBT (HPLC assay); format: physicochemical; details: for 2nd order rate constant k: aminothiol with CBT, PBS buffer, room temperature, HPLC assay; for second-order reaction rate: substituted cysteine analogues with CBT, FIG. 50B
Procedure: (§1) General Methods for Measuring Kinetics of Condensation Reactions Between Aromatic Nitriles and Aminothiols: The 2nd order rate constants for condensation reactions between aromatic nitriles and aminothiols were measured by using HPLC assays. To solutions of aromatic nitriles (100 μM) in phosphate buffered saline (PBS) (1×, pH=7.4) were added aminothiol (1.0 equiv.), TCEP (2.0 equiv.) and NaHCO3 (3 equiv.). The reaction solutions were kept at room temperature (23° C.) and monitored by HPLC at different time points. The conversion rates were calculated using the peak integrals of aromatic nitriles and the condensation products at 254 nm. Based on 2nd order reaction law, 1/[aromatic nitrile] was plotted against time and the slope of the linear regression result gives the 2nd order rate constant.

[2] = DLS of nanoaggregates of cyclized products; format: physicochemical; details: 10 μM, after raising pH from 4 to 7.4
Procedure: DLS Measurements: DLS measurements samples of I-VI were prepared by diluting fresh stock solutions of I-VI (20 mM in DMSO) to 10 μM solutions with HCl aqueous solution to adjust pH to 4. DLS measurements samples of cycl-I-VI were prepared by adding 0.5 μL of freshly prepared stock solutions of 1-VI (20 mM in DMSO), 6 μL saturated sodium bicarbonate solution into 993.5 μL H2O to adjust pH to 7.4.

[3] = Condensation kinetics of aromatic nitriles with L-cysteine (HPLC assay); format: physicochemical; details: for 2nd order rate constant k: aromatic nitrile with L-cysteine, PBS buffer, room temperature, HPLC assay; for second-order reaction rate: cyano-substituted aromatic with L-cysteine, phosphate-buffered saline (pH=7.4), FIG. 50A
Procedure: as §1

[4] = system: MetAP2 activity in PC3 cells; experiment: Imaging MetAP2 activity in PC3 cells (post click Cy5 labeling); format: cell-based, human; details: for Cy5 post-labeled fluorescence in cells: 24 h
Procedure: FIG. 45B illustrates fluorescence microscopy imaging of cy5 post-labeled M-SNAT (20 μM) with or without TNP470 and M-SNAT-ctrl (20 μM) in PC3 cells. Permealized cells were also stained with DAPI (blue).
Imaging MetAP2 activity in cancer cells: Cell uptake and MetAP2 specific activation of M-SNAT and M-SNAT-ctrl were evaluated in PC3 and DU145 cells with the MetAP2-specific inhibitor TNP-470. Post click fluorescent labeling was performed as illustrated in FIG. 45A to locate the nanoaggregation in cells and avoid the possible interference with probe uptake by pre-conjugating a large Cy5 fluorophore.

[5] = system: MetAP2 activity in DU145 cells; experiment: Imaging MetAP2 activity in DU145 cells (post click Cy5 labeling); format: cell-based, human; details: for Cy5 post-labeled fluorescence in cells: DU145, 20 μM, 24 h
Procedure: Imaging MetAP2 activity in cancer cells: […] Post click fluorescent labeling was performed as illustrated in FIG. 45A to locate the nanoaggregation in cells and avoid the possible interference with probe uptake by pre-conjugating a large Cy5 fluorophore.

[6] = system: MetAP2 activity in 22Rv1 cells; experiment: Imaging MetAP2 activity in 22Rv1 cells (post click Cy5 labeling); format: cell-based, human
[7] = biological target: recombinant human MetAP2 (Homo sapiens, UniProt P50579); experiment: Macrocyclization and nanoaggregation of M-SNAT with recombinant MetAP2; details: for macrocyclization (HPLC, mass spectrometry): TCEP
Chain of recombinant human MetAP2 (P50579 whole entry): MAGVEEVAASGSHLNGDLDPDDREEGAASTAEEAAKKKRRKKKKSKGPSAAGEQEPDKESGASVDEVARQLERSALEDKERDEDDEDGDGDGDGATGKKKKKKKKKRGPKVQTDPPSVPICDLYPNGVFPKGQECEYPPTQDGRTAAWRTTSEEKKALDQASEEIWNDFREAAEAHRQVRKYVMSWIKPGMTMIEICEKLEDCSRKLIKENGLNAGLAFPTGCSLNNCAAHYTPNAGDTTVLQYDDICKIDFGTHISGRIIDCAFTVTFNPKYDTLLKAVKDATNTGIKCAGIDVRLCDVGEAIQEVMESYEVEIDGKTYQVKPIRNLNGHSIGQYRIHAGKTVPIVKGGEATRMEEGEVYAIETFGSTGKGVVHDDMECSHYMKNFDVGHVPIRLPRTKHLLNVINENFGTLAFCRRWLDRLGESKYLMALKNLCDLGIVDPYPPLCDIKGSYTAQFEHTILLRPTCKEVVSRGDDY

[8] = Intramolecular cyclization kinetics (HPLC assay); format: physicochemical; details: PBS, pH 7.4, room temperature
Procedure: General Methods for Measuring Intramolecular Cyclization Kinetics: The 1st order rate constants of intramolecular cyclization of I-VI to produce cycl-I-VI, respectively were measured by HPLC assays adapted from the previously reported assay^38. To solutions of substrates I-VI in phosphate buffered saline (PBS) (1×, pH=7.4) were added a solution of TCEP (2.0 equiv.) in PBS (freshly prepared and the pH was adjusted to 7.4 by 1 N sodium hydroxide aqueous solution), affording a final concentration of 100 μM for the substrates. The mixture was kept at room temperature (23° C.) and monitored by HPLC at different time points. The concentration of remaining starting material was calculated using the peak integrals of the starting material at 254 nm. Based on first-order reaction law, In([At]/[A0]) was plotted against time and the slope of the linear regression result gives the first-order rate constant.

[9] = system: PC3 tumors; experiment: 18F-M-SNAT PET/CT imaging of PC3 xenograft mice; format: in vivo
Procedure: FIG. 47A illustrates images after 90 min programed PET/CT scan; n=4. About 150 μCi ^18F-M-SNAT were injected. White and gray indicate CT signal; a thresholding method was utilized to mask the relatively high uptake in liver, spleen, kideney and bladder.
PET/CT imaging of MetAP2 activity in tumor: Before applying fluorine-18 labeled M-SNAT (^18F-M-SNAT) for studies in vivo, the stability of non-radioactive ^19F-M-SNAT was investigated in mouse serum. The ability of ^18F-M-SNAT to indicate MetAP2 activity was assessed in male nude mice bearing subcutaneous PC3 tumors. When the tumors (right shoulder) were grown to 300-500 mm^3, PBS with or without TNP-470 were injected subcutaneously at 50 mg/kg at a remote position (lower left on the back) every other day for 4 days and then injected every day for 5 more days. The last injection was 4 h before imaging (FIG. 47A).
On the day of imaging, fluorine-18 was generated using a cyclotron and conjugated to M-SNAT in a rapid two-step chemical synthesis (FIG. 44). About 150 μCi (8.9 pmol)^18F-M-SNAT were injected to mice intravenously for a programed microPET/CT whole body scan through 90 min. […] About 1.3% was retained at 90 min. In comparison, the inhibitor-treated mice hold about 1% ID/cc through the whole scanning period (FIG. 47C). […] Tumors were resected 20 h after tracer injection for IHC staining ex vivo.

[10] = system: β-galactosidase activity in 9L/LacZ cells
Procedure: FIG. 33 illustrates quantification of fluorescent intensity in the flow cytometry data in FIG. 3G.
Confocal Microscopy Imaging of 9L/LacZ Cell With B-SNAF2/4-BDP: Cells were incubated with B-SNAF2-BDP or B-SNAF4-BDP (2 μM) at 37° C. for 2 hours and then were then washed three times with cold PBS. The cells were fixed with 4% paraformaldehyde and stained with 2 μM Hoechst 33258 (Sigma) for 10 min. The cells were washed three times with PBS mounted with 2 μM Hoechst 33258 (Sigma) at 37° C. for 20 min. Cells were then fixed and imaged using a confocal laser scanning microscope (Zeiss LSM710; Zeiss America) with DAPI and DsRed filters. The images were processed using the ImageJ software package (National Institutes of Health).

[11] = cited from earlier work; for 2nd order rate constant k: aromatic nitrile with L-cysteine, reported in Reference 13

Compound: C[C@](N)(CS)C(=O)O [Entry 8, 2-methyl-L-cysteine]
2nd order rate constant k [1]: 5.35 ± 0.8 M⁻¹ s⁻¹
2nd order rate constant k ([1]; listed as 2-methyl-L-cysteine): 5.35 M⁻¹ s⁻¹
second-order reaction rate [1]: 5.7 M⁻¹ s⁻¹

diameter of nanoaggregates (DLS) [2]: 80 nm
Compound: N#Cc1ccc2cc(OCCCNC(=O)c3ccc(CNC(=O)C(N)CS)cc3)ccc2n1 (stereo not drawn) [Compound I]

diameter of nanoaggregates (DLS) [2]: around 80 nm
Compound: C#CCC1NC(=O)C2CSC(=N2)c2ccc3cc(ccc3n2)OCCCNC(=O)c2ccc(cc2)CNC1=O (stereo not drawn) [cycl-II]

Compound: CC(C)(C)OC(=O)NCCCOc1cnc(C#N)nc1 [Entry 6]
2nd order rate constant k [3]: 0.01 ± 0.0017 M⁻¹ s⁻¹
2nd order rate constant k ([3]; listed as alkoxy-substituted 2-pyrimidinecarbonitrile): 0.01 M⁻¹ s⁻¹

Compound: C#CCC(NC(=O)CNC(=O)C(CSSCC)NC(=O)C(N)CCSC)C(=O)NCc1ccc(C(=O)NCCCOc2cnc(C#N)nc2)cc1 (stereo not drawn) [M-SNAT] (H-MC(SEt)G[Pra][4Amb]-{NH(CH2)3O(2-CNpyrimidin5yl)}; configuration not given here)
Cy5 post-labeled fluorescence in cells ([4]; MetAP2 knockdown PC3 cells): much weaker red fluorescence
Cy5 post-labeled fluorescence in cells ([4]; PC3, 20 μM): red fluorescence was observed
accumulation in cells ([5]; DU145): dose-dependent manner
Cy5 post-labeled fluorescence in cells [5]: red fluorescence was observed
Cy5 post-labeled fluorescence in cells ([6]; MetAP2 knockdown 22Rv1 cells, 24 h): much weaker red fluorescence
average diameter of nanoparticles (DLS, TEM) ([7]; 10 μM, MetAP2 7.5 μg/ml, 24 h): 861 nm
diameter range of nanoparticles ([7]; 10 μM, MetAP2 7.5 μg/ml, 24 h): 531-1281 nm
macrocyclization (HPLC, mass spectrometry) ([7]; 10 μM, MetAP2 7.5 μg/ml, 24 h): converted into M-SNAT-cyclized
average diameter of nanoparticles (DLS) ([7]; FIG. 44B): 861 nM
diameter range of nanoparticles (DLS) ([7]; FIG. 44B): 531 to 1281 nM

diameter of nanoaggregates (DLS) [2]: 80 nm
Compound: C#CCC(NC(=O)C(N)CS)C(=O)NCc1ccc(C(=O)NCCCOc2ccc3nc(C#N)ccc3c2)cc1 (stereo not drawn) [Compound II]
1st order rate constant of intramolecular cyclization [8]: 1.2×10^−3 s^−1 and 1.2±0.04×10^−3 s^−1

Compound: N#Cc1ncc(Br)cn1 [Entry 4, 5-bromo-2-pyrimidinecarbonitrile]
2nd order rate constant k [3]: 2.21 ± 0.037 M⁻¹ s⁻¹
2nd order rate constant k ([3]; listed as 5-bromo-2-pyrimidinecarbonitrile): 2.21 M⁻¹ s⁻¹
second-order reaction rate [3]: 0.58 M⁻¹ s⁻¹

Compound: CO[C@@H]1[C@H](OC(=O)NC(=O)CCl)CC[C@]2(CO2)[C@H]1[C@@]1(C)O[C@@H]1CC=C(C)C [TNP-470, reference compound]
effect on M-SNAT fluorescence ([4]; PC3, TNP-470 2 μM): significantly reduced
inhibition of M-SNAT signal (flow cytometry) ([4]; PC3 cells treated, permealized and post-labeled): 22.7%
effect on M-SNAT fluorescence ([6]; 22Rv1, TNP-470 2 μM): significantly reduced
tumor growth versus PBS-treated group ([9]; 50 mg/kg s.c., PC3 tumors): no significant difference

macrocyclization (HPLC, mass spectrometry) ([7]; 10 μM, MetAP2 7.5 μg/ml, 24 h): could not cyclize
Compound: C#CCC(NC(=O)CNC(=O)C(CSC)NC(=O)C(N)CCSC)C(=O)NCc1ccc(C(=O)NCCCOc2cnc(C#N)nc2)cc1 (stereo not drawn) [M-SNAT-ctrl] (H-MC(Me)G[Pra][4Amb]-{NH(CH2)3O(2-CNpyrimidin5yl)}; configuration not given here)
Cy5 post-labeled fluorescence in cells ([4]; PC3, 20 μM): not
Cy5 post-labeled fluorescence in cells [5]: not

Compound: CC(C)(S)[C@@H](N)C(=O)O [Entry 7, D-penicillamine]
2nd order rate constant k [1]: 0.029 ± 0.003 M⁻¹ s⁻¹
2nd order rate constant k ([1]; listed as D-penicillamine): 0.029 M⁻¹ s⁻¹
second-order reaction rate [1]: 0.06 M⁻¹ s⁻¹

Compound: CCSSCC(NC(=O)OCc1ccc(OC2O[C@H](CO)[C@H](O)[C@H](O)C2O)cc1)C(=O)NCC(=O)NC(CCCCNC(=O)CCc1ccc2n1[B-](F)(F)[N+]1=C(C)C=C(C)C1=C2)C(=O)NCc1ccc(C(=O)NCCCOc2cnc(C#N)nc2)cc1 (stereo partly drawn) [B-SNAF4-BDP]
retention of fluorescent signal, 9L/LacZ over 9L/Luc ([10]; 2 μM, 37° C., 2 hours): 2.5 fold
retention of fluorescent signal, 9L/LacZ versus 9L/Luc ([10]; fluorescent imaging): significantly higher retention

clearance ([9]; PC3 xenograft mice, 90 min PET/CT): fast clearance by kidney to bladder
Compound: CCSSCC(NC(=O)C(N)CCSC)C(=O)NCC(=O)NC(Cc1cn(CCOCCOCCOCC[18F])nn1)C(=O)NCc1ccc(C(=O)NCCCOc2cnc(C#N)nc2)cc1 (stereo not drawn) [^18F-M-SNAT]
tumor retention ([9]; PBS-treated PC3 tumors, at 90 min): About 1.3%
tumor uptake ([9]; PBS-treated PC3 tumors, within 10 min): 1.6 % ID/cc
tumor uptake ([9]; TNP-470 (inhibitor)-treated mice, whole scanning period): about 1 % ID/cc

Compound: C#CCC1NC(=O)CCNC(=O)C2CSC(=N2)c2ncc(cn2)OCCCNC(=O)c2ccc(cc2)CNC1=O (stereo not drawn) [cycl-V]
1st order rate constant of intramolecular cyclization [8]: 8.0±0.6×10^−4 s^−1

Compound: Cc1csc(C#N)n1 [4-methyl-2-thiazolecarbonitrile]
second-order reaction rate ([11]; with cysteine, Ye et al. (2011)): 0.7 M⁻¹ s⁻¹

Compound: C#CCC1NC(=O)CNC(=O)C2(C)CSC(=N2)c2ncc(cn2)OCCCNC(=O)c2ccc(cc2)CNC1=O (stereo not drawn) [cycl-VI]
1st order rate constant of intramolecular cyclization [8]: 2.7±0.1×10^−3 s^−1

diameter of nanoaggregates (DLS) [2]: around 80 nm
Compound: O=C1NCCCOc2ccc3nc(ccc3c2)C2=NC(CS2)C(=O)NCc2ccc1cc2 (stereo not drawn) [cycl-I]

Compound: N#Cc1ncccn1 [Entry 5, 2-pyrimidinecarbonitrile]
2nd order rate constant k [3]: 0.99 ± 0.17 M⁻¹ s⁻¹
2nd order rate constant k ([3]; listed as 2-pyrimidinecarbonitrile): 0.99 M⁻¹ s⁻¹
second-order reaction rate [3]: 0.17 M⁻¹ s⁻¹

Compound: C#CCC1NC(=O)CNC(=O)C2CSC(=N2)c2ncc(cn2)OCCCNC(=O)c2ccc(cc2)CNC1=O (stereo not drawn) [cycl-IV]
1st order rate constant of intramolecular cyclization [8]: 2.1±0.07×10^−3 s^−1

Compound: N#Cc1ccccn1 [Entry 3, 2-pyridinecarbonitrile]
2nd order rate constant k [11]: No Rxn^a
2nd order rate constant k ([11]; listed as 2-pyridinecarbonitrile): no reaction was observed
